We go through five compounds from patent US20240191303A1, “METHODS FOR OPTIMIZING THE TREATMENT OF COLORECTAL CANCER” (Brown University, priority 2021, published 2024).

Data set [1] has as its system HCT116 and HCT116 p53−/− cells. Briefly: Cytokine profiling of cell supernatants (Luminex 200), p53 status not separated. Conditions: for VEGF production/release: both HCT116 and HCT116 p53−/−. The data set is classed as cell-based, human.
Procedure: A total of 4×10^4 HCT116 or HCT116 p53^−/− cells were plated per well of a 24-well plate and incubated twelve-sixteen hours before treatment with 55-fluorouracil, CPT-11, oxaliplatin, cisplatin, or various combination treatments at the appropriate IC50 (combination treatments received each drug at their IC50). Cell supernatants were collected at forty-eight hours after treatment and stored at −20° C. Samples were prepared and run in triplicate on a Luminex 200 Instrument (R&D LX200-XPON-RUO). Sample preparation was conducted, and instrument settings were selected based on the Human Magnetix Luminex Assay (R&D LXSAHM) protocol.
Data set [2] deals with HCT116 and HCT116 p53−/− cells. Put plainly: Clariom D microarrays, RNA expression relative to untreated cells. In kind it is cell-based, human. Conditions: IC50 dose, 8 h; for BTG2 induction, rank in p53-dependent gene signature: fold change>2. The procedure: Microarrays. Total cellular RNA was isolated, and Clariom™ D microarrays were used to measure changes in RNA expression relative to untreated cells. A total of 7×10^5 HCT116 and HCT116 p53^−/− cells were plated in a 6-well plate and incubated for twelve-sixteen hours before being treated with 5-fluorouracil, CPT-11, oxaliplatin, or cisplatin at their respective IC50 doses for eight hours. Cell pellets were collected and split into two tubes, one for western blot analysis and one for RNA extraction. Samples were randomized, and RNA was isolated (Qiagen 74134) in five batches to ensure a high-quality RNA product. Acceptable RNA concentration and quality were verified with Nanodrop and Bioanalyzer measurements. Clariom D Microarrays (ThermoFisher 902923) were conducted according to the manufacturer's protocol in two batches on randomized samples to limit batch effects.
Statistical analysis. TAC software was used to calculate fold changes and statistical significance. Microarrays Applied Biosystems Transcriptomic Analysis Console (TAC) software was used to calculate fold-changes in gene expression relative to the untreated control cells. p-values<0.05 were considered significant.
To define a pan-drug signature and to evaluate heterogeneity in the p53 response on a whole-transcriptome scale, the inventors treated HCT116 and HCT116 p53^−/− cells with each of the four drugs at their IC50 for eight hours. The RNA expression relative to an untreated control was measured using microarray analysis. Upregulation of p53 in these samples and equal induction of cell death at this dose and time point was validated by Western blot and CellTiterGlo, respectively, before microarray analysis. […] Each internal control had tightly clustered triplicates. Quality control measurements were also determined to be satisfactory for further analysis.

A further data set concerns HCT116 p53−/− cells. Briefly: Cytokine profiling of cell supernatants (Luminex 200), p53−/− cells. The data set is classed as cell-based, human. Conditions: IC50, 48 h. As to the method:
(§1) Cytokine profiling. A total of 4×10^4 HCT116 or HCT116 p53^−/− cells were plated per well of a 24-well plate and incubated twelve-sixteen hours before treatment with […], CPT-11, oxaliplatin, cisplatin, or various combination treatments at the appropriate IC50 (combination treatments received each drug at their IC50). Cell supernatants were collected at forty-eight hours after treatment and stored at −20° C. Samples were prepared and run in triplicate on a Luminex 200 Instrument (R&D LX200-XPON-RUO). Sample preparation was conducted, and instrument settings were selected based on the Human Magnetix Luminex Assay (R&D LXSAHM) protocol.
(§2) Cytokine profiling. Results were analyzed in GraphPad prism, and statistical significance across drugs was determined separately for wild-type and ^−/− cells with a one-way ANOVA. p-values<0.05 were considered significant.
(§3) HCT116 and HCT116 p53^−/− cells were treated with the four drugs (5-FU, CPT-11, oxaliplatin, and cisplatin) at their IC50s and combination treatment groups received two-three drugs, each at their individual IC50 concentration.

For data set [3] the following is noted: oxaliplatin-treated mice; cited from earlier work.
For data set [4] the following is noted: cited from earlier work.
For a further data set, the system named is HCT116 cells (wild-type). Put plainly: Cytokine profiling of cell supernatants (Luminex 200), wild-type cells. As to conditions: IC50, 48 h. In kind it is cell-based, human. The procedure:
as §1, §2, §3

Where [5] appears, read: drug(s) each at IC50, 48 h, vs control.
Setting [6] is: drug at IC50, 48 h, HCT116 vs HCT116 p53−/−.

Entries after “also recorded” stand apart in the source; their conditions may differ. Read-outs that look alike come from different tables or passages of the source.

For `CCc1c2c(nc3ccc(OC(=O)N4CCC(N5CCCCC5)CC4)cc13)-c1cc3c(c(=O)n1C2)COC(=O)[C@]3(O)CC` [CPT-11, Irinotecan], the VEGF production/release entry in data set [1] (drug at IC50, 48 h) is reported as “downregulated”. Further, in data set [1] (drug at IC50, 48 h, vs control), the “TRAILR2 level in cell supernatant” value is on record as “not affected”. The “IL-8 level in cell supernatant” value in data set [1] (setting [5]) is given as “moderate increase”. In data set [2], the DRAM1 transcript regulation entry was “p53-dependent, CPT-11-specific regulation”; the FDXR transcript regulation result was “p53-dependent, CPT-11-specific regulation”; the TLR3 transcript regulation entry is “p53-dependent, CPT-11-specific regulation”; the “transcripts of the 5-fluorouracil/CPT-11/oxaliplatin-specific signature (e.g., SERPINE1, CEACAM1, C1orf116)” value was “upregulated”. Besides, the “BTG2 induction, rank in p53-dependent gene signature” value (from here on “BTG2 induction, rank”) in data set [2] is on record as “second most highly induced gene”.
As to `N.N.[Cl][Pt][Cl]` [cisplatin], the “p53 dependence of TRAILR2 regulation” value in data set [1] (setting [6]) is recorded as “despite p53 status”. In addition, the VEGF production/release entry in data set [1] (drug at IC50, 48 h) was “downregulated”. The “TRAILR2 level in cell supernatant” value in data set [1] (drug at IC50, 48 h, vs control) is listed as “increased”. Moreover, the “ferritin level in cell supernatant” value in data set [1] (setting [5]) was “increase”. Besides, in data set [2], the PITPNC1 transcript regulation result was “downregulation”; the PRPF39 transcript regulation result is listed as “upregulation”; the ROR1 transcript regulation entry was “downregulation”; the “transcripts of the 5-fluorouracil/CPT-11/oxaliplatin-specific signature (e.g., SERPINE1, CEACAM1, C1orf116)” value was “unaffected”. For the same compound, the “BTG2 induction, rank” value in data set [2] is given as “top upregulated gene; also recorded: most highly induced gene”. Besides, the “ferritin level in cell supernatant” value in the data set with HCT116 p53−/− cells is given as “large increase”.
Take `O=c1[nH]cc(F)c(=O)[nH]1` [5-fluorouracil, 5-Fluorouracil]: the “p53 dependence of TRAILR2 regulation” value in data set [1] (setting [6]) is on record as “p53-independent”. Besides, the VEGF production/release entry in data set [1] (drug at IC50, 48 h) is reported as “downregulated”. Also, the “TRAILR2 level in cell supernatant” value in data set [1] (drug at IC50, 48 h, vs control) is “down-regulated”. Further, in data set [2], the BAX transcript regulation result is “slight preferential upregulation; also recorded: preferentially upregulated”; the histone gene regulation result is “strikingly unique down-regulation; also recorded: uniquely down-regulated”; the “transcripts of the 5-fluorouracil/CPT-11/oxaliplatin-specific signature (e.g., SERPINE1, CEACAM1, C1orf116)” value is “upregulated”; the “BTG2 induction, rank” value is recorded as “top upregulated gene; also recorded: most highly induced gene”.
As for `CN(C)C(=N)N=C(N)N` [metformin], the “reversal of oxaliplatin-induced neuronal damage” value in data set [3] is “reversible”.
As to `O=C1[O][Pt]2([NH][C@@H]3CCCC[C@H]3[NH]2)[O]C1=O` [oxaliplatin, Oxaliplatin], in data set [1], the “IL-8 level in cell supernatant” value is “increase”, the “TRAILR2 level in cell supernatant” value was “down-regulated” and the “p53 dependence of TRAILR2 regulation” value was “dependent on p53”. Also, the VEGF production/release result in data set [1] (drug at IC50, 48 h) is reported as “downregulated”. In data set [3], the “neuronal damage (upregulation of FOS and ATF3)” value is listed as “neuronal damage”. In addition, in data set [4], the “peripheral neuropathy, share of patients” value was 30-50%. Further, the “IL-8 level in cell supernatant” value with HCT116 cells (wild-type) is “did not affect”. Besides, in data set [2], the ATF3 transcript regulation result was “Upregulation”, the FOS transcript regulation entry is “uniquely upregulated”, the SAT1 transcript regulation entry was “uniquely upregulated” and the SUSD2 transcript regulation result is on record as “uniquely upregulated”. Also, in data set [2], the “transcripts of the 5-fluorouracil/CPT-11/oxaliplatin-specific signature (e.g., SERPINE1, CEACAM1, C1orf116)” value is reported as “upregulated” and the “BTG2 induction, rank” value is on record as “top upregulated gene; also recorded: most highly induced gene”. Further, the “IL-8 level in cell supernatant” value in the data set with HCT116 p53−/− cells was “induced”.
